# Measured values as given in PMC11999280, “Design and screening of novel endosomal escape compounds that enhance functional delivery of oligonucleotides in vitro” (Molecular Therapy. Nucleic Acids, 2025).
# What was measured:
# Assay type in all cases: cell-based
# [1] = system: mCherry-GAL9 expressing 16HBE cells; assay: GAL9 recruitment assay, 16HBE; conditions: calculated mean from >3 independent exp.
# In short: (§1)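 Stable mCherry-GAL9 lines; 24 h post-seeding, compound dosed as dose-response. Endpoint: PBS wash, 4% PFA fix (RT), Hoechst 33342 1 μg/mL. Confocal imaging ×20w, GAL9 puncta quantified. N = 3, duplicate wells.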
# [2] = system: mCherry-GAL9 expressing HEK293 cells; assay: GAL9 recruitment assay, HEK293; conditions: calculated mean from >3 independent exp.
# In short: as §1
# [3] = system: mCherry-GAL9 expressing HeLa cells; assay: GAL9 recruitment assay, HeLa; conditions: calculated mean from >3 independent exp.
# In short: as §1
# [4] = system: mCherry-GAL9 expressing HepG2 cells; assay: GAL9 recruitment assay, HepG2; conditions: calculated mean from >3 independent exp.
# In short: as §1
# [5] = system: mCherry-GAL9 expressing HuH7 cells; assay: GAL9 recruitment assay, HuH7; conditions: calculated mean from >3 independent exp.
# In short: as §1
# [6] = system: mCherry-GAL9 expressing NCI-H358 cells; assay: GAL9 recruitment assay, NCI-H358; conditions: calculated mean from >3 independent exp.
# In short: as §1
# [7] = system: mCherry-GAL9 expressing SHSY5Y cells; assay: GAL9 recruitment assay, SHSY5Y; conditions: calculated mean from >3 independent exp.
# In short: as §1
# [8] = system: mCherry-GAL9 expressing U2OS cells; assay: GAL9 recruitment assay, U2OS; conditions: calculated mean from >3 independent exp.
# In short: as §1
# [9] = system: HeLa_Luc705 cells (pLuc/705 splice-switching reporter); assay: Functional 705-SSO delivery, luciferase splice-switching assay; conditions: for Luciferase expression compared to reference: mean from >3 independent experiments
# In short: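 Splice correction was measured as firefly luciferase luminescence in Triton X-100 lysates taken 24 h after enhancer treatment. Before treatment, the 10,000 cells/well had spent 24 h with 1–2 μM 705-SSO (2′-OMe, phosphorothioate). For comparison, 100–200 nM SSO was lipofected with LF2000.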
# [10] = system: cell lines carrying an mCherry-GAL9-reporter; assay: GAL9 puncta formation upon EEE dose escalation (images); conditions: dose escalation 0.31 to 10 μM
# Procedure: We further studied endosomal leakage by quantifying GAL9 recruitment upon EEE dose escalation, from 0.31 to 10 μM. For this purpose, we used cell lines carrying an mCherry-GAL9-reporter, where endosomal rupture could be quantified by measuring GAL9 clustering as a puncta event representative of endosomal remodeling.
# Experiments assessing GAL9 localization as an indicator for endosomal remodeling were performed as previously described[15] using 8× stablemCherry-GAL9 expressing cell lines, SHSY5Y, U2OS, 16HBE, NCI-H358, HuH7, HepG2, HEK293, and HeLa. For mCherry-GAL9 recruitment, 3,000 or 6,500 cells/well (depending upon cell line) were seeded into 384-well CellCarrier Ultra plates 24 h prior to treatment (PerkinElmer, catalog no. 6007558). An Echo 655T acoustic dispenser (Labcyte) was used for EEE dose-response preparation by transferring to the cell plate. At assay endpoints, cells were PBS washed, 4% paraformaldehyde fixed at room temperature […] (VWR, catalog no. 9713.1000), and nuclei stained with PBS +1 μg/mL Hoechst 33342 (Thermo Fisher Scientific, catalog no. H21492).
# Imaging was performed using a spinning-disk confocal microscope (Yokogawa: CV8000) with a ×20w objective (numerical aperture 1.0). Cells and mCherry-GAL9 structure identification and quantification were done using Columbus image-analysis software (PerkinElmer version 2.9.0). […]
# [11] = system: PPIB mRNA in primary human hepatocytes; assay: PPIB siRNA knockdown, qPCR; conditions: EEE32 at 2 μM with GalNAc-siPPIB
# Procedure: Studies of siRNA knockdown therapeutics were performed in primary human hepatocytes using EEE32-mediated enhancement. We aimed to target peptidylpropyl isomerase B (PPIB) mRNA by using siRNA (siPPIB) either alone or together with the EEE32 and comparing them with GalNAc-conjugated siRNA (GalNAc-siPPIB), which is considered a potent human liver uptake enhancer.[30] […] However, the use of EEE32 at a 2-μM concentration enhanced GalNAc-siPPIB activity, improving the knockdown capacity by approximately 10-fold (Figure 5B, top). Additionally, no significant differences indicating compromised cell viability were observed when measuring systematic decreases in RNA yield from both groups (Figure 5B, bottom).
# Human primary hepatocytes obtained from a commercial supplier (QNT lot, BioIVT) were cultured in rat tail collagen I-coated 96-well plates (Corning, catalog no. 354407) using William’s E Medium (A1217601,Thermo Fisher) supplemented with thawing and plating supplements (Thermo Fisher, catalog no. CM3000) (day 0). […]
# [12] = HeLa-Luc705 + 1 µM SSO, EEE 0.5 µM
# [13] = HeLa-Luc705 + 1 µM SSO, EEE 2 µM
# [14] = HeLa-Luc705 + 1 µM SSO, EEE 4 µM
# [15] = HeLa-Luc705 + 1 µM SSO, EEE 5 µM
smiles,measurement,setting,value
COc1nn(C2CCN(C)CC2)cc1Nc1ncc(F)c(-n2ccc3c(C#N)cccc32)n1 [EEE8],Gal9 response compared to reference,[1]; EEE 0.31 µM,0.011
same,Gal9 response compared to reference,[1]; EEE 0.62 µM,0.035
same,Gal9 response compared to reference,[1]; EEE 1.25 µM,0.180
same,Gal9 response compared to reference,[1]; EEE 2.5 µM,0.503
same,Gal9 response compared to reference,[1]; EEE 5 µM,0.638
same,Gal9 response compared to reference,[1]; EEE 10 µM,0.492
same,Gal9 response compared to reference,[2]; EEE 0.31 µM,0.027
same,Gal9 response compared to reference,[2]; EEE 0.62 µM,0.052
same,Gal9 response compared to reference,[2]; EEE 1.25 µM,0.309
same,Gal9 response compared to reference,[2]; EEE 2.5 µM,0.657
same,Gal9 response compared to reference,[2]; EEE 5 µM,0.605
same,Gal9 response compared to reference,[2]; EEE 10 µM,0.329
same,Gal9 response compared to reference,[3]; EEE 0.31 µM,0.004
same,Gal9 response compared to reference,[3]; EEE 0.62 µM,0.009
same,Gal9 response compared to reference,[3]; EEE 1.25 µM,0.105
same,Gal9 response compared to reference,[3]; EEE 2.5 µM,0.319
same,Gal9 response compared to reference,[3]; EEE 5 µM,0.459
same,Gal9 response compared to reference,[3]; EEE 10 µM,0.198
same,Gal9 response compared to reference,[4]; EEE 0.31 µM,0.007
same,Gal9 response compared to reference,[4]; EEE 0.62 µM,0.008
same,Gal9 response compared to reference,[4]; EEE 1.25 µM,0.011
same,Gal9 response compared to reference,[4]; EEE 2.5 µM,0.075
same,Gal9 response compared to reference,[4]; EEE 5 µM,0.511
same,Gal9 response compared to reference,[4]; EEE 10 µM,0.529
same,Gal9 response compared to reference,[5]; EEE 0.31 µM,0.010
same,Gal9 response compared to reference,[5]; EEE 0.62 µM,0.016
same,Gal9 response compared to reference,[5]; EEE 1.25 µM,0.078
same,Gal9 response compared to reference,[5]; EEE 2.5 µM,0.313
same,Gal9 response compared to reference,[5]; EEE 5 µM,0.228
same,Gal9 response compared to reference,[5]; EEE 10 µM,0.160
same,Gal9 response compared to reference,[6]; EEE 0.31 µM,0.017
same,Gal9 response compared to reference,[6]; EEE 0.62 µM,0.032
same,Gal9 response compared to reference,[6]; EEE 1.25 µM,0.148
same,Gal9 response compared to reference,[6]; EEE 2.5 µM,0.553
same,Gal9 response compared to reference,[6]; EEE 5 µM,0.623
same,Gal9 response compared to reference,[6]; EEE 10 µM,0.457
same,Gal9 response compared to reference,[7]; EEE 0.31 µM,0.014
same,Gal9 response compared to reference,[7]; EEE 0.62 µM,0.082
same,Gal9 response compared to reference,[7]; EEE 1.25 µM,0.694
same,Gal9 response compared to reference,[7]; EEE 2.5 µM,0.629
same,Gal9 response compared to reference,[7]; EEE 5 µM,0.567
same,Gal9 response compared to reference,[7]; EEE 10 µM,0.278
same,Gal9 response compared to reference,[8]; EEE 0.31 µM,0.012
same,Gal9 response compared to reference,[8]; EEE 0.62 µM,0.013
same,Gal9 response compared to reference,[8]; EEE 1.25 µM,0.029
same,Gal9 response compared to reference,[8]; EEE 2.5 µM,0.234
same,Gal9 response compared to reference,[8]; EEE 5 µM,0.490
same,Gal9 response compared to reference,[8]; EEE 10 µM,0.563
same,Luciferase expression compared to reference,[9]; [12],0.717
same,Luciferase expression compared to reference,[9]; [13],2.253
same,Luciferase expression compared to reference,[9]; [14],11.227
same,Luciferase expression compared to reference,[9]; [15],31.147
same,Luciferase expression compared to reference,"[9]; HeLa-Luc705 + 2 µM SSO, EEE 5 µM",52.876
same,EEE dose required to show splice-switching above 10-fold normalized to SSO only,"[9]; dose-response, 1 μM SSO",4.5 μM
same,EEE concentration with clear GAL9 puncta formation,[10],≥ 1.25 µM
COc1nn(C2CCNC(C)(C)C2)cc1Nc1ncc(F)c(-n2ccc3c(C#N)cccc32)n1 (centres unmarked) [EEE32],Luciferase expression compared to reference,[9]; [12],3.743
same,Luciferase expression compared to reference,[9]; [13],115.294
same,Luciferase expression compared to reference,[9]; [14],111.401
same,Luciferase expression compared to reference,[9]; [15],66.337
same,Splice-switching with 24-h SSO pre-incubation relative to SSO co-treatment,"[9]; dose response, luciferase readout at time points after EEE addition",around 17 times
same,Splice-switching enhancement,[9]; using 2–2.5 μM EEE,above 100 fold
same,Improvement of GalNAc-siPPIB knockdown capacity,[11],approximately 10 fold
